Results taken from publication PMC10079235 (PLOS Neglected Tropical Diseases, 2023).
Structures can show the parent of a compound that is named as a salt. Where two headings read alike, the source gives them in different places.

Legend:
HCT-8/MDR1(PTX) cells = conditions: for TC50: MDR1(PTX) cells; for Pct change of TC50 (vs NC): MDR1(PTX) vs NC cells
Procedure: (§1) Host cell drug tolerance to specified inhibitors was evaluated by 3-(4,5-dimethylthiazol-2-yl)-5-(3-carboxymethoxyphenyl)-2-(4-sulfophenyl)-2H-tetrazolium (MTS) assay. WT and transgenic host cells were seeded in 96-well plates (10,000 cells/well) and cultured for 24 h, followed by the addition of specified compounds at serially diluted concentrations and continued culture for 41 h. After 3 washes with serum-free medium, MTS solution (Saint-Bio, Shanghai, China) was added into the plates (20 μL/well) and incubated at 37°C for 2 h. Optical density at 490 nm (OD490) was measured using a Synergy LX multi-mode reader (BioTek, Winooski, VT). Drug tolerance was indicated by half-maximal cytotoxic concentrations (TC50 values) calculated by nonlinear regression using 4PL model. Selectivity index (SI) for each compound was determined by the ratio between TC50 and EC50 values (SI = TC50/EC50).
(§2) Surviving cells were allowed to recover in drug-free medium for 3–5 d to near confluence (round 1). The selection/recovery cycle were repeated once (round 2). […] The resulting cell lines after PTX or NTZ selection were designated as WT(PTX), NC(PTX) and MDR1(PTX), or WT(NTZ), NC(NTZ) and MDR1(NTZ), respectively (Tables 1 and S2).

HCT-8/WT cells = assay: MTS cytotoxicity (drug tolerance) assay; conditions: for TC50: WT cells, no drug selection, MTS assay
Procedure: as §1

HCT-8/WT(PTX) cells = assay: MTS cytotoxicity (drug tolerance) assay; conditions: for TC50: human, 41 h
Procedure: as §1, §2

HCT-8/NC(PTX) cells = assay: MTS cytotoxicity (drug tolerance) assay; conditions: for TC50: human, 41 h
Procedure: as §1, §2

HCT-8/MDR1(NTZ) cells = assay: MTS cytotoxicity (drug tolerance) assay; conditions: for TC50: MDR1(NTZ) cells
Procedure: as §1, §2

HCT-8/NC cells = conditions: human, 41 h
HCT-8/MDR1 cells = assay: MTS cytotoxicity (drug tolerance) assay; conditions: for TC50: MDR1 cells, no drug selection, MTS assay
HCT-8/WT(NTZ) cells = assay: MTS cytotoxicity (drug tolerance) assay; conditions: for TC50: human, 41 h
Procedure: as §1
(§3) Surviving cells were allowed to recover in drug-free medium for 3–5 d to near confluence (round 1). The selection/recovery cycle were repeated once (round 2). […] Finally, all cells were cultured at the final selection concentrations of PTX or NTZ for ≥7 d, followed by culture in drug-free medium for 14 d. At this time point, cells were used for cytotoxicity and efficacy assays or cryopreserved in a liquid nitrogen tank. The resulting cell lines after PTX or NTZ selection were designated as WT(PTX), NC(PTX) and MDR1(PTX), or WT(NTZ), NC(NTZ) and MDR1(NTZ), respectively (Tables 1 and S2).

HCT-8/NC(NTZ) cells = assay: MTS cytotoxicity (drug tolerance) assay; conditions: for TC50: human, 41 h
Procedure: as §1, §3

Cryptosporidium parvum = assay: Anti-cryptosporidial efficacy assay (44-h infection/qRT-PCR); conditions: for On-target (Eon) rate at EC50 / Off-target (Eoff) rate at EC50: MDR1(PTX) cell model; for On-target (Eon) rate at EC50: Eq 2; for Off-target (Eoff) rate at EC50: from Pct changes of EC50 and TC50 (Eq 1); for Action on parasite target (on-target) conclusion: MDR1-transgenic host cell model; for Eoff, proportion of off-parasite-target effect / Eon, proportion of on-parasite-target effect: MDR1(PTX) vs. NC model, Eq 3 and 4
[1] = Cryptosporidium parvum, MDR1, read-out: Antiparasitic efficacy (EC50), C. parvum cultured in MDR1(PTX) host cells
[2] = Cryptosporidium parvum, read-out: Antiparasitic efficacy (EC50), C. parvum cultured in NC host cells
[3] = Cryptosporidium parvum, read-out: Antiparasitic efficacy (EC50), C. parvum cultured in WT host cells

Compound | TC50 (HCT-8/MDR1(PTX) cells; after selection by PTX) [µM] | TC50 (HCT-8/WT cells) [µM] | TC50 (HCT-8/WT(PTX) cells) [µM] | TC50 (HCT-8/NC(PTX) cells) [µM] | TC50 (HCT-8/MDR1(NTZ) cells; after selection by NTZ) [µM] | TC50 (HCT-8/NC cells) [µM] | TC50 (HCT-8/MDR1 cells) [µM] | TC50 (HCT-8/WT(NTZ) cells) [µM] | TC50 (HCT-8/NC(NTZ) cells) [µM] | Pct change of TC50 (vs NC) (HCT-8/MDR1(PTX) cells) [%] | Off-target (Eoff) rate at EC50 (Cryptosporidium parvum) [%] | Action on parasite target (on-target) conclusion (Cryptosporidium parvum) | Eoff, proportion of off-parasite-target effect (Cryptosporidium parvum; at EC10) [%] | Eoff, proportion of off-parasite-target effect (Cryptosporidium parvum; at EC20) [%] | Eoff, proportion of off-parasite-target effect (Cryptosporidium parvum; at EC30) [%] | Eoff, proportion of off-parasite-target effect (Cryptosporidium parvum; at EC40) [%] | Eoff, proportion of off-parasite-target effect (Cryptosporidium parvum; at EC50) [%] | Eoff, proportion of off-parasite-target effect (Cryptosporidium parvum; at EC60) [%] | Eoff, proportion of off-parasite-target effect (Cryptosporidium parvum; at EC80) [%] | Eoff, proportion of off-parasite-target effect (Cryptosporidium parvum; at EC90) [%] | other results
COc1cccc2c1C(=O)c1c(O)c3c(c(O)c1C2=O)C[C@@](O)(C(C)=O)C[C@@H]3O[C@H]1C[C@H](N)[C@H](O)[C@H](C)O1 [Daunorubicin, Daunorubicin HCl] | 10.23 | 3.91 | 3.88 | 4.05 | 3.93 | 4.16 | 3.95 | 4.09 | 3.85 | – | – | – | – | – | – | – | – | – | – | – | Fold change of TC50 MDR1(PTX) vs. NC (HCT-8/MDR1(PTX) cells; after selection by PTX): 2.46; Fold change of TC50 MDR1(PTX) vs. MDR1 (HCT-8/MDR1(PTX) cells; after selection by PTX vs parent cell line): 2.59; Fold change of TC50 MDR1(PTX)/NC(PTX) (HCT-8/MDR1(PTX) cells; ratio of TC50): 2.53; Fold change of TC50 WT(PTX) vs. WT (HCT-8/WT(PTX) cells): 0.99; Fold change of TC50 NC(PTX) vs. NC (HCT-8/NC(PTX) cells): 0.97; Fold increase of TC50 MDR1(NTZ) vs. NC (HCT-8/MDR1(NTZ) cells; after selection by NTZ): 0.94; Fold increase of TC50 MDR1(NTZ) vs. MDR1 (HCT-8/MDR1(NTZ) cells; after selection by NTZ vs parent cell line): 0.99; Fold change of TC50 MDR1/NC (HCT-8/MDR1 cells; ratio of TC50, MDR1 vs NC cells): 0.95; Fold increase of TC50 WT(NTZ) vs. WT (HCT-8/WT(NTZ) cells): 1.05; Fold increase of TC50 NC(NTZ) vs. NC (HCT-8/NC(NTZ) cells): 0.93
COc1cccc2c1C(=O)c1c(O)c3c(c(O)c1C2=O)C[C@@](O)(C(=O)CO)C[C@@H]3O[C@H]1C[C@H](N)[C@H](O)[C@H](C)O1 [Doxorubicin, Doxorubicin HCl] | – | 4.03 | 4.24 | 4.15 | 6.90 | 4.34 | 6.67 | 4.18 | 4.21 | 140.3 | 45.5 | partially on-target | 26.90 | 32.80 | 37.30 | 41.30 | 45.3 | 49.60 | 61.40 | 72.90 | EC50 (Cryptosporidium parvum; [1]): 1950 nM; EC50 (Cryptosporidium parvum; [2]): 1190 nM; EC50 (Cryptosporidium parvum; [3]): 1180 nM; On-target (Eon) rate at EC50 (Cryptosporidium parvum): 54.5%; On-target (Eon) rate at EC50 (Cryptosporidium parvum; listed as DXR): 54.5%; Eon, proportion of on-parasite-target effect (Cryptosporidium parvum; at EC10): 73.10%; Eon, proportion of on-parasite-target effect (Cryptosporidium parvum; at EC20): 67.20%; Eon, proportion of on-parasite-target effect (Cryptosporidium parvum; at EC30): 62.70%; Eon, proportion of on-parasite-target effect (Cryptosporidium parvum; at EC40): 58.70%; Eon, proportion of on-parasite-target effect (Cryptosporidium parvum; at EC50): 54.7%; Eon, proportion of on-parasite-target effect (Cryptosporidium parvum; at EC60): 50.40%; Eon, proportion of on-parasite-target effect (Cryptosporidium parvum; at EC80): 38.60%; Eon, proportion of on-parasite-target effect (Cryptosporidium parvum; at EC90): 27.10%
CC(=O)O[C@H]1C(=O)[C@@]2(C)[C@H]([C@H](OC(=O)c3ccccc3)[C@]3(O)C[C@H](OC(=O)[C@H](O)[C@@H](NC(=O)c4ccccc4)c4ccccc4)C(C)=C1C3(C)C)[C@]1(OC(C)=O)CO[C@@H]1C[C@@H]2O [Paclitaxel] | 45.86 | 12.75 | 16.03 | – | 21.94 | 12.37 | 20.22 | 12.51 | 12.73 | 270.7 | -1.2 | 100% on-target | -4.20 | -3.30 | -2.60 | -2.10 | −1.5 | -1.00 | 0.30 | 1.50 | Calculated cytotoxicity at EC50 (HCT-8/WT cells; percent inhibition of WT host cell growth at the EC50 concentration, calculated with Eq 5 from k and h): 1.92%; EC50 (Cryptosporidium parvum; [1]): 290 nM; EC50 (Cryptosporidium parvum; [2]): 300 nM; EC50 (Cryptosporidium parvum; [3]): 310 nM; Eoff, proportion of off-parasite-target effect (Cryptosporidium parvum; at EC70): -0.40%
Ivermectin | – | – | – | – | – | – | – | – | – | – | 22.9 | partially on-target | 18.40 | 20.10 | 21.20 | 22.10 | 22.8 | 23.60 | 25.30 | 26.60 | On-target (Eon) rate at EC50 (Cryptosporidium parvum): 77.1%; On-target (Eon) rate at EC50 (Cryptosporidium parvum; listed as IVM): 77.1%; Eon, proportion of on-parasite-target effect (Cryptosporidium parvum; at EC10): 81.60%; Eon, proportion of on-parasite-target effect (Cryptosporidium parvum; at EC10, listed as IVM): 81.6%; Eon, proportion of on-parasite-target effect (Cryptosporidium parvum; at EC20): 79.90%; Eon, proportion of on-parasite-target effect (Cryptosporidium parvum; at EC30): 78.80%; Eon, proportion of on-parasite-target effect (Cryptosporidium parvum; at EC40): 77.90%; Eon, proportion of on-parasite-target effect (Cryptosporidium parvum; at EC50): 77.2%; Eon, proportion of on-parasite-target effect (Cryptosporidium parvum; at EC60): 76.40%; Eoff, proportion of off-parasite-target effect (Cryptosporidium parvum; at EC70): 24.40%; Eon, proportion of on-parasite-target effect (Cryptosporidium parvum; at EC70): 75.60%; Eon, proportion of on-parasite-target effect (Cryptosporidium parvum; at EC80): 74.70%; Eon, proportion of on-parasite-target effect (Cryptosporidium parvum; at EC90): 73.40%; Eon, proportion of on-parasite-target effect (Cryptosporidium parvum; at EC90, listed as IVM): 73.4%; EC50 (Cryptosporidium parvum; read-out: Antiparasitic efficacy (EC50), C. parvum cultured in MDR1(PTX) host cells): 4250 nM; EC50 (Cryptosporidium parvum; read-out: Antiparasitic efficacy (EC50), C. parvum cultured in NC host cells): 3230 nM; EC50 (Cryptosporidium parvum; read-out: Antiparasitic efficacy (EC50), C. parvum cultured in WT host cells): 3160 nM
